Measurements reported in patent US20090023769A1, “Organic Compounds” (NOVARTIS AG, priority 2006, published 2009).

Test system: monocrotaline reversal model of pulmonary hypertension
Assay: monocrotaline reversal model of pulmonary hypertension
Format: in vivo
Settings: 3 mg/kg orally once daily from days 21-42; also dosed at 0.3 and 1 mg/kg
Experimental: The compound of formula II, namely 4-[8-(3-Fluorophenyl)-[1,7]naphthyridin-6-yl]-cyclohexanecarboxylic acid and being a representative example of compounds of formula I, is tested in the monocrotaline reversal model of pulmonary hypertension that is described by Schermuly et al in The Journal of Clinical Investigation 2005 October; 115(10):2811-21. The disclosure of that article is incorporated herein by way of reference.
4-[8-(3-Fluorophenyl)-[1,7]-naphthyridin-6-yl]-cyclohexanecarboxylic acid is dosed orally to the animals once daily from days 21-42 of the experiment at 0.3, 1 and 3 mg/kg.

O=C(O)C1CCC(c2cc3cccnc3c(-c3cccc(F)c3)n2)CC1 (stereo not shown) [4-[8-(3-Fluorophenyl)-[1,7]naphthyridin-6-yl]-cyclohexanecarboxylic acid]
shows efficacy: medial wall thickness | mortality | reversal of RV (right ventricular) pressure | reversal of RV hypertrophy
